The values below come from patent US20230203055A1, “FUSED RING COMPOUND AND APPLICATION THEREOF IN MEDICINE” (Betta Pharmaceuticals Co., LTD, priority 2020, published 2023).

The test system of experiment [1] is H358 cells. Kind of experiment: Detection of cell proliferation inhibition, H358 (Cell-titer Glo, 96 h). The class given is cell-based. As to the method: H358 cells were plated in 96-well ultra-low adsorption plates at 2000 cells and 190 µL/well. After overnight incubation, compound solutions of gradient concentrations were prepared, and 10 µL of the DMSO solution of each concentration of the compound to be tested was added to the cells in each well. Compound final concentrations were 10000, 3333.3, 1111.1, 370.4, 123.5, 41.2, 13.7, 4.6, 1.5, 0 nM (all final concentrations of DMSO were 0.25%). Incubate at 37° C., 5% CO2 for 96 h. Add 50 µL of Cell-titer Glo working solution to each well, incubate at room temperature for 10 min after shaking and mixing, read the Luminescence luminescence value with a multi-function microplate reader, and convert the luminescence value reading into the inhibition percentage:
Percent Inhibition = (Max-Reading)/(Max-Min)* 100. • “Max” is the DMSO control, • “Min” is the cell-free control.
Curve fitting was performed with Graphpad Prism software and IC50 values were obtained. See Table 1 for IC50 data on H358 cell inhibition by example compounds.

The test system of experiment [2] is MIA PaCa-2 cells. The experiment in a line: Detection of cell proliferation inhibition, MIA PaCa-2 (Cell-titer Glo, 96 h). The class given is cell-based. The protocol:
MIA PaCa-2 cells were plated in a 96-well ultra-low adsorption plate at 600 cells and 160 µL/well. After overnight incubation, compound solutions with gradient concentrations were prepared, and 40 µL of DMSO solutions of the compounds to be tested were added to each well of cells respectively. Compound final concentrations were 10000, 2000, 400, 80, 16, 3.2, 0.64, 0.12, 0.025, 0 nM (all final concentrations of DMSO were 0.25%). Incubate at 37° C., 5% CO2 for 96 h. Add 50 µL of Cell-titer Glo working solution to each well, shake and mix well, incubate at room temperature for 10 min, read the Luminescence luminescence value with a multi-function microplate reader, and convert the luminescence value reading into inhibition percentage: Percent Inhibition = (Max-Reading)/(Max-Min)* 100. • “Max” is the DMSO control; • “Min” is the cell-free control.
Curve fitting was performed with Graphpad Prism software and IC50 values were obtained. See Table 1for IC50 data for the inhibition of MIA PaCa-2 cells by the compounds of the examples.

[3] abbreviates: Homo sapiens, NCI-H358, read-out: IC50 (nM) H358.
Setting [4] is: Homo sapiens, read-out: IC50 (nM) MIA PaCa-2.
Setting [5] is: Homo sapiens, read-out: IC50 MIA PaCa-2.

Read-outs that look alike come from different tables or passages of the source.

One may read the IC50 as the midpoint of a concentration-inhibition curve. For “10-((S)-4-(Acryloyl-2-Methylpiperazin-1-yl)-8-Fluoro-13-(2-Isopropyl-4-Methyl) Pyridin-3-yl)-2,3-Dihydrobenzo [4,5] Oxodipine [3,2-h] Quinolin-12(13H)One [Example 7]”, the IC50 in experiment [1] (read-out: IC50 (nM) H358) turned out to be 137 nM; in experiment [2] (read-out: IC50 (nM) MIA PaCa-2), 70 nM.
For `C=CC(=O)N1CCN(c2nc(=O)n(-c3c(C)ccnc3C(C)C)c3c4c(c(F)cc23)-c2ccccc2CO4)[C@@H](C)C1` [Example 1], in that order: 491 nM and 90.2 nM.
In the case of `C=CC(=O)N1CCN(c2nc(=O)n(-c3c(C)ccnc3C(C)C)c3c(F)c4c(cc23)OCc2ccccc2-4)[C@@H](C)C1` [Example 2], the half-maximal inhibitory concentration (IC50) was 295 nM in experiment [1] (read-out: IC50 (nM) H358) and 122 nM in experiment [2] (read-out: IC50 (nM) MIA PaCa-2).
Turning to `C=CC(=O)N1CCN(c2nc(=O)n(-c3c(C)ccnc3C(C)C)c3c4c(c(F)cc23)-c2c(F)cccc2CO4)[C@@H](C)C1` [Example 3], the half-maximal inhibitory concentration (IC50) in experiment [1] (read-out: IC50 (nM) H358) is 78 nM; in experiment [2] (read-out: IC50 (nM) MIA PaCa-2), less than 50 nM.
On to `C=CC(=O)N1CCN(c2nc(=O)n(-c3c(C)ccnc3C(C)C)c3c(F)c4c(cc23)OCc2cccc(F)c2-4)[C@@H](C)C1` [Example 4, (S)-8-(Acryloyl-2-Methylpiperazin-1-yl)-1,12-Difluoro-11-(2-Isopropyl-4-Methylpyridin-3-yl)-5H-Isochromene[3,4-g] Quinazolin-10(11H)-One], for which the values for the IC50 in experiment [1] (read-out: IC50 (nM) H358) and in experiment [2] (read-out: IC50 (nM) MIA PaCa-2) were 191 nM and 63 nM, respectively.
Regarding `C=CC(=O)N1CCN(c2nc(=O)n(-c3c(C)ccnc3C(C)C)c3c4c(c(F)cc23)-c2c(Cl)cccc2CO4)[C@@H](C)C1` [Example 5, (S)-1-(Acryloyl-2-Methylpiperazin-1-yl)-10-Chloro-11-Fluoro-4-(2-Isopropyl-4-Methylpyridin-3-yl)-4H-Isochromene[4,3-h] Quinazolin-3(6H)-One], the concentration for half-maximal inhibition (IC50) in experiment [1] (read-out: IC50 (nM) H358) is 115 nM; in experiment [2] (read-out: IC50 (nM) MIA PaCa-2), less than 50 nM.
For `C=CC(=O)N1CCN(c2nc(=O)n(-c3c(C)ccnc3C(C)C)c3c(F)c4c(cc23)OCc2cccc(Cl)c2-4)[C@@H](C)C1` [Example 6, (S)-8-(Acryloyl-2-Methylpiperazin-1-yl)-1-Chloro-12-Fluoro-11-(2-Isopropyl-4-Methylpyridin-3-yl)-5 H-Isochromene[3,4-g] Quinazolin-10(11 H)-one], in that order: 496 nM and 272 nM.
Regarding `C=CC(=O)N1CCN(c2nc(=O)n(-c3c(C)ccnc3C(C)C)c3c(F)c4c(cc23)OCCc2ccccc2-4)[C@@H](C)C1` [Example 8], the half-maximal inhibitory concentration (IC50) in experiment [1] (setting [3]) stood at 155 nM; in experiment [2] (setting [4]), 85 nM.
With `C=CC(=O)N1CCN(c2nc(=O)n(-c3c(C)ccnc3C(C)C)c3c4c(c(F)cc23)-c2c(O)cccc2CO4)[C@@H](C)C1` [Example 9, (S)(Acryloyl-2-methylpiperazinyl)-11-fluoro-10-hydroxy-4-(2-isopropyl-4-methylpyridin-3-yl) -4 H-isochromene[4,3-h] quinazolin-3(6 H)-one], the IC50 in experiment [1] (Homo sapiens, NCI-H358, read-out: IC50 H358) is more than 10000 nM; in experiment [2] (setting [5]), more than 10000 nM.
As to `C=CC(=O)N1CCN(c2nc(=O)n(-c3c(C)ccnc3C(C)C)c3c(F)c4c(cc23)OCc2cccc(O)c2-4)[C@@H](C)C1` [Example 10, (S)-8-(Acryloyl-2-Methylpiperazin-1-yl)-12-Fluoro-1-Hydroxy-1l-(2-Isopropyl-4-Methylpyridin-3-yl)-5H-Isochromene[3,4-g]Quinazolin-10(11H)-One], the IC50 in experiment [1] (setting [3]) was determined as 3870 nM; in experiment [2] (setting [4]) it was 3110 nM.
For the compound `C=CC(=O)N1CCN(c2nc(=O)n(-c3c(C)ccnc3C(C)C)c3c4c(c(F)cc23)-c2c(cccc2OC)CO4)[C@@H](C)C1` [Example 11, (S)-1-(Acryloyl-2-Methylpiperazin-1-yl)-l1-Fluoro-10-Methoxy-4-(2-Isopropyl-4-Methylpyridin-3-yl)-4H-Isochromene[4,3-h] Quinazolin-3(6H)-one], the IC50 in experiment [1] (setting [3]) amounted to 2040 nM; in experiment [2] (setting [4]), 964 nM.
For `C=CC(=O)N1CCN(c2nc(=O)n(-c3c(C)ccnc3C(C)C)c3c(F)c4c(cc23)OCc2cccc(OC)c2-4)[C@@H](C)C1` [Example 12, (S)-8-(Acryloyl-2-Methylpiperazin-1-yl)-12-Fluoro-1-Methoxy-11-(2-Isopropyl-4-Methylpyridin-3-yl)-5H-Isochromene[3,4-g] Quinazolin-10(11H)-One], the IC50 was 3180 nM in experiment [1] (setting [3]) and more than 2000 nM in experiment [2] (setting [5]).
As to `C=CC(=O)N1CCN(c2nc(=O)n(-c3c(C)ccnc3C(C)C)c3c4c(c(Cl)cc23)-c2c(F)cccc2CO4)[C@@H](C)C1` [Example 13, (S)-1-(4-Acryloyl-2-Methylpiperazin-1-yl)-11-Chloro-10-Fluoro-4-(2-Isopropyl-4-Methylpyridin-3-yl)-4H-Isochromene[4,3-h] Quinazolin-3(6H)-One], the IC50 in experiment [1] (read-out: IC50 (nM) H358) and in experiment [2] (read-out: IC50 (nM) MIA PaCa-2) was less than 50 nM in each case.
As for `C=CC(=O)N1CCN(c2nc(=O)n(-c3c(C)ccnc3C(C)C)c3c4c(c(C=C)cc23)-c2c(F)cccc2CO4)[C@@H](C)C1` [Example 14, (S)-1-(4-Acryloyl-2-Methylpiperazin-1-yl)-10-Fluoro-4-(2-Isopropyl-4-Methylpyridine-3-yl)-11-Vinyl-4H-Isochromene[4,3-h] Quinazolin-3(6H)-One], the concentration for half-maximal inhibition (IC50) in experiment [1] (read-out: IC50 (nM) H358) and in experiment [2] (read-out: IC50 (nM) MIA PaCa-2) was less than 50 nM each time.
On to `C=CC(=O)N1CCN(c2nc(=O)n(-c3c(C)ccnc3C(C)C)c3c4c(c(C)cc23)-c2c(F)cccc2CO4)[C@@H](C)C1` [Example 15, (S)-1-(4-Acryloyl-2-Methylpiperazin-1-yl)-10-Fluoro-4-(2-Isopropyl-4-Methylpyridine-3-yl)-11-Methyl-4H-Isochromene[4,3-h] Quinazolin-3(6H)-One], for which the IC50 in experiment [1] (read-out: IC50 (nM) H358) and in experiment [2] (read-out: IC50 (nM) MIA PaCa-2) was less than 50 nM each time.
Take `C=CC(=O)N1CCN(c2nc(=O)n(-c3c(C)ccnc3C(C)C)c3c4c(c(C(F)(F)F)cc23)-c2c(F)cccc2CO4)[C@@H](C)C1` [Example 16, (S)-1-(4-Acryloyl-2-Methylpiperazin-1-yl)-10-Fluoro-4-(2-Isopropyl-4-Methylpyridine-3-yl)-11-(Trifluoromethyl)-4H-Isochromene[4,3-h] Quinazolin-3(6H)-One]: the IC50 in experiment [1] (read-out: IC50 (nM) H358) is 80.6 nM; in experiment [2] (read-out: IC50 (nM) MIA PaCa-2), less than 50 nM.
Consider `C=CC(=O)N1CCN(c2nc(=O)n(-c3c(C)ccnc3C(C)C)c3c(F)c4c(cc23)OCc2ccc(F)c(F)c2-4)[C@@H](C)C1` [Example 17, (S)-8-(4-Acryloyl-2-Methylpiperazin-1-yl)-1,2,12-Trifluoro-11-(2-Isopropyl-4 -Methylpyridin-3-yl)-5H Isochromene[3,4-g] Quinazolin-10(11H)-One], for which the concentration for half-maximal inhibition (IC50) came to 274 nM in experiment [1] (setting [3]) and 317 nM in experiment [2] (setting [4]).
As to `C=CC(=O)N1CCN(c2nc(=O)n(-c3c(C)ccnc3C(C)C)c3c4c(c(Cl)cc23)-c2c(ccc(F)c2F)CO4)[C@@H](C)C1` [Example 18, (S)-1-(4-Acryloyl-2-Methylpiperazin-1-yl)-11-Chloro-9,10-Difluoro-4-(2-Isopropyl-4-Methylpyridin-3-yl)-4H-Isochromene[4,3-h] Quinazolin-3(6H)-One], the concentration for half-maximal inhibition (IC50) in experiment [1] (setting [3]) and in experiment [2] (setting [4]) was less than 50 nM throughout.
Take `C=CC(=O)N1CCN(c2nc(=O)n(-c3c(C)ccnc3C(C)C)c3c4c(c(Cl)cc23)-c2c(F)cccc2CCO4)[C@@H](C)C1` [Example 19, 10-((S)-4-Acryloyl-2-Methylpiperazin-1-yl)-8-Chloro-7-Fluoro-13-(2-Isopropyl-4-Methylpyridin-3-yl)-2,3-Dihydrobenzo[4,5]oxa[3,2-h]Quinazo1in-12(13H)-One]: the IC50 in experiment [1] (setting [3]) and in experiment [2] (setting [4]) was less than 50 nM in each case.
As for `C=CC(=O)N1CCN(c2nc(=O)n(-c3c(C)ccnc3C(C)C)c3c4c(c(Cl)cc23)-c2cccnc2CO4)[C@@H](C)C1` [Example 20, (S)-7-(4-Acryloyl-2-Methylpiperazin-1-yl)-5-Chloro-10-(2-Isopropyl-4-Methylpyridine-3-yl)-10H Pyridin[3’,2’:4,5] Pyrano[3,2-h]Quinazolin-9(12H)-One], the IC50 was found to be 62.6 nM in experiment [1] (setting [3]) and 64.2 nM in experiment [2] (setting [4]).
Regarding `C=CC(=O)N1CCN(c2nc(=O)n(-c3c(C)ccnc3C(C)C)c3c4c(c(F)cc23)-c2c(ccc3ccccc23)CO4)[C@@H](C)C1` [Example 21, (S)-1-(4-Acryloyl-2-Methylpiperazin-1-yl)-13-Fluoro-4-(2-Isopropyl-4-Methylpyridine-3-yl)-4H-Benzo[5,6] Isochromene[4,3-h]Quinazolin-3(6H)-one], the IC50 in experiment [1] (setting [3]) was found to be 690 nM; in experiment [2] (setting [4]), 1700 nM.
